Measured values published in US11324787B2, “Analytical methods and arrays for use in the same” (SENZAGEN AB, priority 2017, dated 2022).
Where two headings read alike, the source gives them in different places.

How the values were obtained:
[1] = test system: myeloid cell line derived from MUTZ-3
[2] = test system: myeloid cell line derived from MUTZ-3; remark: listed apart in the source
[3] = test system: myeloid cell line derived from MUTZ-3; remark: listed apart in the source
[4] = test system: myeloid cell line derived from MUTZ-3; experiment: GARD random forest model predicting CLP categories (52 transcripts, Example A); details: test set; for GARD predicted CLP: majority voting across replicates; for predicted CLP: separate replicates
[5] = test system: myeloid cell line derived from MUTZ-3; experiment: Cytotoxicity / viability by flow cytometry (propidium iodide), 24 hours exposure; details: yes/no; MUTZ-3 derived cells
[6] = cited from earlier work; for binary class: sens / non-sens; for true CLP: test set
[7] = cited from earlier work; for binary class (HP*): based on human potency [41] where available, otherwise according to CLP; for HP: human potency, chemicals of random forest training and test set; for Human potency [41]: test set
[8] = test system: myeloid cell line derived from MUTZ-3; experiment: GARD binary classification (SVM on GARD prediction signature, 200 transcripts); details: SVM, median calibrated decision value of replicates >0 = sensitizer
[9] = CLP annotation of 37 novel chemicals
[10] = chemicals of random forest training and test set

Nc1ccccc1 [aniline]
GARD binary classification relative to cut-off defined by benchmark samples [1]: close to the cut-off

CCCCC/C(=C/c1ccccc1)CO [amylcinnamyl alcohol]
cytotox [2]: yes
GARD binary prediction [1]: S

CCCCOCC1CO1 (stereo not shown) [butyl glycidyl ether]
cytotox [2]: yes
GARD predicted CLP ([3]; human, 24 h): 1A
GARD binary classification relative to cut-off defined by benchmark samples [1]: close to the cut-off

CCOc1cc(C=O)ccc1O [ethyl vanillin]
GARD predicted CLP [3]: no cat
predicted CLP [3]: no cat
predicted CLP ([3]; human, 24 h): 1B

CC(C)(c1ccc(OCC2CO2)cc1)c1ccc(OCC2CO2)cc1 (stereo not shown) [bisphenol A-diglycidyl ether]
GARD predicted CLP [4]: 1A
predicted CLP [4]: 1A
GARD binary prediction [1]: S

O=CCCCC=O [glutaraldehyde]
cytotox [5]: yes
CLP [6, 9]: 1A
CLP ([6]; Table 10, chemicals test set 1): 1A
CLP [6, 10]: 1A
binary class [6, 10]: sens
true CLP ([6]; per replicate line): 1A
true CLP [6]: 1A
GARD predicted CLP [4]: 1A
predicted CLP [4]: 1A
binary class (HP*) [7]: S (HP 1-4 = S)
HP [7]: 2
Human potency [41] [7]: 2
GARD binary prediction [8]: S

CCCOC(=O)c1cc(O)c(O)c(O)c1 [propyl gallate]
cytotox [5]: yes
CLP [6, 9]: 1A
CLP [6, 10]: 1A
binary class [6, 10]: sens
true CLP ([6]; per replicate line): 1A
true CLP [6]: 1A
GARD predicted CLP [4]: 1A
predicted CLP [4]: 1A
binary class (HP*) [7]: S (HP 1-4 = S)
HP [7]: 2
Human potency [41] [7]: 2
GARD binary prediction [8]: S
